According to US9890117B2, “Benzamide compounds and related methods of use” (Northwestern University, priority 2012, dated 2018):

Tests used:
[1] = molecular target: T1, SIRT2 (Homo sapiens, UniProt Q8IXJ6); assay: Fluor-de-Lys biochemical sirtuin deacetylation assay, SIRT2; settings: 10 μM
T1 construct: recombinant active enzymes SIRT1, SIRT2, and the catalytically active fragment of SIRT3
T1 sequence (Q8IXJ6 1-389): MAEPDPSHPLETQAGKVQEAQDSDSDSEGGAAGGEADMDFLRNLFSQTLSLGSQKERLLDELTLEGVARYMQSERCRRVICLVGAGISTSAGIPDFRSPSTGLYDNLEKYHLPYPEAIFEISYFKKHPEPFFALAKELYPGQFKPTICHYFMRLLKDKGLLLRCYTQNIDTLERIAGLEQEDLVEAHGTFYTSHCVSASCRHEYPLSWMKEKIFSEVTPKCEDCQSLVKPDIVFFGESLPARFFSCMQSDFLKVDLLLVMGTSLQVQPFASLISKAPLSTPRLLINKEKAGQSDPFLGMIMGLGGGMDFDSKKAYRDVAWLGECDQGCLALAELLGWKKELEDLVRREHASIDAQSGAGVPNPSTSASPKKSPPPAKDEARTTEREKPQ

| SMILES | inhibition at 10 µM [1] | melting point |
| --- | --- | --- |
| CC(=O)Nc1cccc(NC(=O)c2cccc(S(=O)(=O)N3CCCCCC3)c2)c1 [Compound 203k, N-(3-acetamidophenyl)-3-(azepan-1-ylsulfonyl)benzamide] | 59% | 117 to 120 °C |
| Cc1cc(Cl)ccc1N(C)C(=O)c1cccc(S(=O)(=O)N(C)c2ccc(Br)cc2)c1 [Compound 203l, 3-(N-(4-bromophenyl)-N-methylsulfamoyl)-N-(4-chloro-2-methylphenyl)-N-methylbenzamide] | 25% | 124 to 125 °C |
| Cc1cc(F)ccc1N(C)C(=O)c1cccc(S(=O)(=O)N(C)c2ccc(Br)cc2)c1 [Compound 203m, 3-(N-(4-bromophenyl)-N-methylsulfamoyl)-N-(4-fluoro-2-methylphenyl)-N-methylbenzamide] | 28% | 104 to 105 °C |
| Cc1cc(Cl)ccc1NC(=O)c1cccc(S(=O)(=O)N(C)c2ccc(Br)cc2)c1 [Compound 203n, 3-(N-(4-bromophenyl)-N-methylsulfamoyl)-N-(4-chloro-2-methylphenyl)benzamide] | 18% | 163 to 164 °C |
| Cc1cc(F)ccc1NC(=O)c1cccc(S(=O)(=O)N(C)c2ccc(Br)cc2)c1 [Compound 203o, 3-(N-(4-bromophenyl)-N-methylsulfamoyl)-N-(4-fluoro-2-methylphenyl)benzamide] | 14% | 163 to 165 °C |
| CN(c1ccc(Br)cc1)S(=O)(=O)c1cccc(C(=O)Nc2ccc(Cl)cc2F)c1 [Compound 203q, 3-(N-(4-bromophenyl)-N-methylsulfamoyl)-N-(4-chloro-2-fluorophenyl)benzamide] | 29% | 117 to 118 °C |
| CN(c1ccc(Br)cc1)S(=O)(=O)c1cccc(C(=O)Nc2ccc(F)cc2F)c1 [Compound 203u, 3-(N-(4-bromophenyl)-N-methylsulfamoyl)-N-(2,4-difluorophenyl)benzamide] | 22% | 119 to 120 °C |
| CN(c1ccc(Cl)cc1)S(=O)(=O)c1cccc(C(=O)Nc2ccc(Br)cc2F)c1 [Compound 203w, N-(4-bromo-2-fluorophenyl)-3-(N-(4-chlorophenyl)-N-methylsulfamoyl)benzamide] | 31% | 126 to 127 °C |
| CN(c1ccc(Cl)cc1)S(=O)(=O)c1cccc(C(=O)Nc2ccc(Cl)cc2C#N)c1 [Compound 203x, N-(4-chloro-2-cyanophenyl)-3-(N-(4-chlorophenyl)-N-methylsulfamoyl)benzamide] | 15% | 157 to 158 °C |
| CN(c1ccc(Cl)cc1)S(=O)(=O)c1cccc(NC(=O)c2ccc(Br)cc2)c1 [Compound 207a, 4-bromo-N-(3-(N-(4-chlorophenyl)-N-methylsulfamoyl)phenyl)benzamide] | 28% | 187 to 189 °C |
| CN(c1ccc(S(C)(=O)=O)cc1)S(=O)(=O)c1cccc(NC(=O)c2ccc(Br)cc2)c1 [Compound 207b, 4-bromo-N-(3-(N-methyl-N-(4-(methylsulfonyl)phenyl)sulfamoyl)phenyl)benzamide] | 57% | 216 to 218 °C |
| CN(c1ccc(S(C)(=O)=O)cc1)S(=O)(=O)c1cccc(NC(=O)c2ccc([S+](C)[O-])cc2)c1 (stereo not drawn) [Compound 207c, N-(3-(N-methyl-N-(4-(methylsulfonyl)phenyl)sulfamoyl)phenyl)-4-(methylsulfinyl)benzamide] | 47% | 184 to 186 °C |
| CN(c1ccc(S(C)(=O)=O)cc1)S(=O)(=O)c1cccc(NC(=O)c2ccc(S(C)(=O)=O)cc2)c1 [Compound 207d, N-(3-(N-methyl-N-(4-(methylsulfonyl)phenyl)sulfamoyl)phenyl)-4-(methylsulfonyl)benzamide] | 26% | 213 to 215 °C (dec.) |

More lines, now with the values ahead:

| inhibition at 10 µM [1] | melting point | SMILES |
| --- | --- | --- |
| 63% | 161 to 162 °C | CSc1ccc(CSc2cccc(C(=O)Nc3ccc(C#N)cn3)c2)cc1 [Compound 211a, N-(5-cyanopyridin-2-yl)-3-((4-(methylthio)benzyl)thio)benzamide] |
| 42% | 159 to 161 °C | CSc1ccc(CSc2cccc(C(=O)Nc3ccc(Cl)cn3)c2)cc1 [Compound 211b, N-(5-chloropyridin-2-yl)-3-((4-(methylthio)benzyl)thio)benzamide] |
| 69% | 167 to 169 °C | COc1ccc(CSc2cccc(C(=O)Nc3ccc(C#N)cc3)c2)cc1 [Compound 211c, N-(4-cyanophenyl)-3-((4-methoxybenzyl)thio)benzamide] |
| 46% | 163 to 164 °C | COc1ccc(CSc2cccc(C(=O)Nc3ccc(C#N)cn3)c2)cc1 [Compound 211d, N-(5-cyanopyridin-2-yl)-3-((4-methoxybenzyl)thio)benzamide] |
| 74% | 160 to 162 °C | N#Cc1ccc(NC(=O)c2ccnc(SCc3ccc(F)cc3)c2)cc1 [Compound 211e, N-(4-cyanophenyl)-2-((4-fluorobenzyl)thio)isonicotinamide] |
| 68% | 201 to 203 °C | COc1ccc(CSc2cc(C(=O)Nc3ccc(C#N)cc3)ccn2)cc1 [Compound 211f, N-(4-cyanophenyl)-2-((4-methoxybenzyl)thio)isonicotinamide] |
| 59% | 148 to 150 °C | N#Cc1ccc(NC(=O)c2cccc(SCc3ccc(F)cc3)c2)cc1 [Compound 211g, N-(4-cyanophenyl)-3-((4-fluorobenzyl)thio)benzamide] |
| 56% | 149 to 150 °C | N#Cc1ccc(NC(=O)c2cccc(OCc3cccc(F)c3F)c2)cc1 [Compound 216Aa, N-(4-cyanophenyl)-3-((2,3-difluorobenzyl)oxy)benzamide] |
| 84% | 181 to 183 °C | CC(=O)c1ccc(C(C)Oc2cncc(C(=O)Nc3ccc(C#N)cc3)c2)cc1 (stereo not drawn) [Compound 216Ab, 5-(1-(4-acetylphenyl)ethoxy)-N-(4-cyanophenyl)nicotinamide] |
| 93% | 79 to 81 °C | CC(=O)c1ccc(C(C)Oc2cccc(C(=O)Nc3ccc(C#N)cc3)c2)cc1 (stereo not drawn) [Compound 216Ac, 3-(1-(4-acetylphenyl)ethoxy)-N-(4-cyanophenyl)benzamide] |
| 58% | 142 to 143 °C | N#Cc1ccc(NC(=O)c2cccc(OCc3cccc(F)c3)c2)cc1 [Compound 216Ad, N-(4-cyanophenyl)-3-((3-fluorobenzyl)oxy)benzamide] |
| 57% | 185 to 187 °C | N#Cc1ccc(NC(=O)c2cccc(OCc3cc(F)cc(F)c3)c2)cc1 [Compound 216Ae, N-(4-cyanophenyl)-3-((3,5-difluorobenzyl)oxy)benzamide] |
| 12% | 179 to 181 °C | CC(O)c1ccc(C(C)Oc2cncc(C(=O)Nc3ccc(C#N)cc3)c2)cc1 (stereo not drawn) [Compound 216Af, N-(4-cyanophenyl)-5-(1-(4-(1-hydroxyethyl)phenyl)ethoxy)nicotinamide] |
| 60% | 147 to 148 °C | CSc1ccc(COc2cccc(C(=O)Nc3ccc(C#N)cc3)c2)cc1 [Compound 216a, N-(4-cyanophenyl)-3-((4-(methylthio)benzyl)oxy)benzamide] |
| 22% | 146 to 147 °C | CSc1ccc(COc2cccc(C(=O)Nc3ccc(C#N)cn3)c2)cc1 [Compound 216b, N-(5-cyanopyridin-2-yl)-3-((4-(methylthio)benzyl)oxy)benzamide] |
| 40% | 147 to 148 °C | COc1ccc(COc2cccc(C(=O)Nc3ccc(C#N)cc3)c2)cc1 [Compound 216c, N-(4-cyanophenyl)-3-((4-methoxybenzyl)oxy)benzamide] |
| 8% | 132 to 134 °C | COc1ccc(COc2cccc(C(=O)Nc3ccc(C#N)cn3)c2)cc1 [Compound 216d, N-(5-cyanopyridin-2-yl)-3-((4-methoxybenzyl)oxy)benzamide] |
| 32% | 174 to 175 °C | C[S+]([O-])c1ccc(COc2cccc(C(=O)Nc3ccc(C#N)cc3)c2)cc1 (stereo not drawn) [Compound 216e] |
| 36% | 173 to 174 °C | COc1ccc(COc2cccc(C(=O)Nc3ccc(S(C)(=O)=O)cc3)c2)cc1 [Compound 216f, 3-((4-methoxybenzyl)oxy)-N-(4-(methylsulfonyl)phenyl)benzamide] |
| 64% | 149 to 150 °C | N#Cc1ccc(NC(=O)c2cccc(OCc3ccc(F)cc3)c2)cc1 [Compound 216g, N-(4-cyanophenyl)-3-((4-fluorobenzyl)oxy)benzamide] |
| 50% | 135 to 136 °C | COc1ccc(COc2cccc(C(=O)Nc3ccc([S+](C)[O-])cc3)c2)cc1 (stereo not drawn) [Compound 216h, 3-((4-methoxybenzyl)oxy)-N-(4-(methylsulfinyl)phenyl)benzamide] |
| 15% | 170 to 171 °C | N#Cc1ccc(NC(=O)c2cccc(OCc3ccc(F)cc3)c2)nc1 [Compound 216i, N-(5-cyanopyridin-2-yl)-3-((4-fluorobenzyl)oxy)benzamide] |
| 67% | 167 to 168 °C | N#Cc1ccc(NC(=O)c2cccc(OCc3ccc(C(F)(F)F)cc3)c2)cc1 [Compound 216j, N-(4-cyanophenyl)-3-((4-(trifluoromethyl)benzyl)oxy)benzamide] |
